Where “and” joins values, the source holds several entries; their conditions need not be identical. Equal entries are not always repeated.
Tested on: rat dysuria model that presents DHIC
Assay: Cystometry and nomogram analysis in rat dysuria model that presents DHIC (partial ligation of urethra)
Format: in vivo
Procedure: The models were produced by partial ligation ((1)1.57 mm) of urethra in rats (9 weeks, female, Sprague-Dawley). Six weeks after preparation of the model, the rats were released the ligation. The next day, the intravesical pressure and the voided volume were measured under awake condition. And the detrusor contractility during voiding phase was evaluated by nomogram analysis using Qmax and Pdet. Additionally, the detrusor overactivity, as index of overactive bladder, and the increase of residual urine volume, as index of underactive bladder, were evaluated.
The dysuria models in this example were prepared in the same manner as in Test Example 1. The test drugs (vehicle: 6% Gelucire, Compound 1 of the present invention 10 mg/kg) were orally administered to each group after two weeks from the preparation of the models twice a day for four weeks. On the day of the final administration, the rats were released the ligation of urethra. The next day, the intravesical pressure and the voided volume were measured using cystometry under conscious condition. The detrusor overactivity, as an index of overactive bladder, and the increase of residual urine volume, as an index of underactive bladder, were evaluated. Additionally, the detrusor contractility during voiding phase was evaluated by nomogram analysis using Qmax and Pdet.
In the same manner as Test Example 1, the rats were released the ligation of urethra at six weeks after the preparation of the model. The next day, the intravesical pressure and the voided volume were measured using cystometry under conscious condition. The detrusor overactivity, as an index of overactive bladder, and the increase of residual urine volume, as an index of underactive bladder, were evaluated. Additionally, the detrusor contractility during voiding phase was evaluated by nomogram analysis using Qmax and Pdet. Tamsulosin (3 μg/kg) was administered intravenously to the dysuria rat at the evaluation (six weeks after preparation of the model).

Compound	Detrusor contractility in nomogram analysis (3 μg/kg intravenously at the evaluation, vs control (FIG. 2))	Detrusor overactivity (female Sprague-Dawley rats, 3 μg/kg intravenously at the evaluation, conscious cystometry, control 1.73 ± 0.10) [times/min]	Detrusor contractility during voiding phase: distance from the origin in nomogram analysis (Qmax, Pdet) (10 mg/kg orally twice a day for four weeks, control 4.24±0.53, sham 24.75±3.14)	Residual urine volume (female Sprague-Dawley rats, 10 mg/kg orally twice a day for four weeks, conscious cystometry, control 0.57 ± 0.06, sham 0.10 ± 0.03, 10 mg/kg) [mL]	Detrusor overactivity (female Sprague-Dawley rats, 10 mg/kg orally twice a day for four weeks, conscious cystometry, control 1.73 ± 0.10, sham 0.19 ± 0.09, 10 mg/kg)
CCOc1ccccc1OCCN[C@H](C)Cc1ccc(OC)c(S(N)(=O)=O)c1 [Tamsulosin, reference compound]	no effect	0.68±0.33	–	–	–
CC1=C(CCCCCCCCCCCCCCCO)C(C)(C)CCC1=O [Compound 1 of the present invention, 3-(15-hydroxypentadecyl)-2,4,4-trimethyl-2-cyclohexene-1-one]	–	–	10.5±2.3	0.28 ± 0.13	0.63±0.14 times/min and 0.63 ± 0.10 times/min

Reference: patent US20170035706A1, “DETRUSOR HYPERACTIVITY WITH IMPAIRED CONTRACTILITY AMELIORATING AGENT” (TAIHO PHARMACEUTICAL CO., LTD., priority 2015, published 2017)
